Here are results for 19 compounds from patent US20250268903A1, “RXFP1 AGONISTS” (BRISTOL-MYERS SQUIBB COMPANY, priority 2021, published 2025).

The assay addresses T1, human RXFP1 (Homo sapiens, UniProt Q9HBX9).
T1 construct: expressed in transfected cells
T1 sequence (Q9HBX9 1-757): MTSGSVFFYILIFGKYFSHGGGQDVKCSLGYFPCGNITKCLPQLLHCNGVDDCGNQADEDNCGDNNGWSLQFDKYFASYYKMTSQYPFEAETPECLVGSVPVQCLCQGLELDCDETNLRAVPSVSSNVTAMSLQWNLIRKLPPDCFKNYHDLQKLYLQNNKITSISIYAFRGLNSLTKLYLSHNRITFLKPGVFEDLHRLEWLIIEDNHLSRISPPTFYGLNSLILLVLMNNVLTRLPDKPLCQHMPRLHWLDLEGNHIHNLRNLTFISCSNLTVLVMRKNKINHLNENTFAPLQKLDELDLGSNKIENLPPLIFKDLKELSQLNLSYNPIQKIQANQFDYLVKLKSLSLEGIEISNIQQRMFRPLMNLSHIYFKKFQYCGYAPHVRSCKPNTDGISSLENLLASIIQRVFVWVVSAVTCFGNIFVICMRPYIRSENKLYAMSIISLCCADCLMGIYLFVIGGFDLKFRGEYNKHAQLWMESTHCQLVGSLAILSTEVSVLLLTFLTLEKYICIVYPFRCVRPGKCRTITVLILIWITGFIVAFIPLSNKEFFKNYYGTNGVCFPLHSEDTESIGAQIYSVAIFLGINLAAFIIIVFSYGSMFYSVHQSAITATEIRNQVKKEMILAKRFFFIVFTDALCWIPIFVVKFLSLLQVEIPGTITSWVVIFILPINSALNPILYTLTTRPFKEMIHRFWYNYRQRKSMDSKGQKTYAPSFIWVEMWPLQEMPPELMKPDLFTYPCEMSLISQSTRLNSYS
The experiment in a line: hRXFP1 HEK293 cAMP assay (HTRF). To be noted: HEK293 cells stably expressing human RXFP1, 30 min at room temperature. It counts as cell-based. Summed up: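 hRXFP1-HEK293 stable line; HBSS + Ca/Mg, 20 mM HEPES, 0.05% BSA, 0.5 mM IBMX; cpd 0.010 nM–50 μM, 2% DMSO; 30 min RT; lysis, HTRF cAMP detection; 4-PL fit.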
On the technique in general: Cyclic AMP is a second messenger, typically raised through Gs and lowered through Gi signalling.

The compound `COc1ccc(CCCO)cc1C(=O)NC1C2CCC(/C2=C/C2CCCOC2)[C@@H]1C(=O)Nc1ccc(F)c(C(F)(F)F)c1` (single isomer, unassigned) [Example 170, (7Z)-N-[4-fluoro-3-(trifluoromethyl)phe-nyl]-3-[5-(3-hydroxypropyl)-2-methoxybenzamido]-7-[(oxan-3-yl)methylidene]bicy-clo[2.2.1]heptane-2-carboxamide] yielded a concentration for a half-maximal effect (EC50) of 51 nM.

In turn, `COc1ccc(CCCCO)cc1C(=O)N[C@@H]1C2CCC(/C2=C/C(F)(F)F)[C@@H]1C(=O)Nc1ccc(F)c(C(F)(F)F)c1` (stereo partly drawn) [Example 98, (2S,3R,7Z)-N-[4-fluoro-3-(trifluoromethyl)phe-nyl]-3-[5-(4-hydroxybutyl)-2-methoxybenzamido]-7-(2,2,2-trifluoroethylidene)bi-cyclo[2.2.1]heptane-2-carboxamide] registered an EC50 of 111 nM.

Turning to “(2S,3R,7Z)-7- butylidene-N-[4- fluoro-3- (trifluoromethyl)phe- nyl]-3-[5-(3- hydroxy-3- methylbutyl)-2- methoxybenzamido] bicyclo[2.2.1]heptane- 2-carboxamide [Example 88]”, it took 28 nM to reach a half-maximal effect (EC50).

`COc1ccc(S(=O)(=O)N2CCNCC2CCO)cc1C(=O)N[C@H]1[C@@H](C(=O)Nc2ccc(F)c(C(F)(F)F)c2)[C@H]2CC[C@@H]1/C2=C\C(F)(F)F` (stereo partly drawn) [Example 216, (1R,2S,3R,4R,7Z)-N-[4-fluoro-3-(trifluoromethyl)phenyl]-3-(5-{[2-(2-hydroxyethyl)piperazin-1-yl]sulfonyl}-2-methoxybenzamido)-7-(2,2,2-trifluoroethylidene) bicyclo[2.2.1]heptane-2-carboxamide]: the EC50 stood at 281 nM.

Compound `COCC/C=C1\C2CCC1[C@H](C(=O)Nc1ccc(F)c(C(F)(F)F)c1)C2NC(=O)c1cc(CCCO)ccc1OC` (stereo partly shown) [Example 161, (7Z)-N-[4-fluoro-3-(trifluoromethyl)phe-nyl]-3-[5-(3-hydroxypropyl)-2-methoxybenzamido]-7-(3-methoxypropylidene) bicyclo[2.2.1]heptane-2-carboxamide] yielded an EC50 of 1160 nM.

As for `COc1ccc(CC[C@H](C)O)cc1C(=O)N[C@@H]1C2CCC(/C2=C/C2CC2)[C@@H]1C(=O)Nc1ccc(F)c(C(F)(F)F)c1` (stereo partly drawn) [Example 94, (2S,3R,7Z)-7-(cyclopropylmethyli-dene)-N-[4-fluoro-3-(trifluoromethyl)phe-nyl]-3-{5-[(3S)-3-hydroxybutyl]-2-methoxybenzamido} bicyclo[2.2.1]heptane-2-carboxamide], the EC50 stood at 62 nM. Compared with the last compound, the EC50 is about 19-fold lower.

On to `COc1ccc(COCCC(=O)O)cc1C(=O)N[C@@H]1C2CCC(C2=C(C)C)[C@@H]1C(=O)Nc1ccc(F)c(C(F)(F)F)c1` (stereo partly drawn) [Example 30, 3-[(3-{[(2R,3S)-3-{[4-fluoro-3-(trifluoromethyl)phe-nyl]carbamoyl}-7-(propan-2-ylidene)bicyclo[2.2.1]heptan-2-yl]carbamoyl}-4-methoxyphenyl)meth-oxy]propanoic acid], for which the concentration for a half-maximal effect (EC50) worked out at 710 nM.

In the case of `COc1ccc(S(=O)(=O)N2CCOC[C@H]2CO)cc1C(=O)N[C@H]1[C@@H](C(=O)Nc2ccc(F)c(C(F)(F)F)c2)[C@H]2CC[C@@H]1/C2=C\C1CC1` [Example 224, (1R,2S,3R,4R,7Z)-7-(cyclopropylmethyl-idene)-N-[4-fluoro-3-(trifluoromethyl)phenyl]-3-(5-{[(3R)-3-(hydroxymethyl)morpholin-4-yl]sulfonyl}-2-methoxybenzamido) bicyclo[2.2.1] heptane-2-carboxamide], a half-maximal response (EC50) required 80.3 nM.

With `COC(=O)C1CC(c2ccc(OC)c(C(=O)N[C@H]3[C@@H](C(=O)Nc4ccc(F)c(C(F)(F)F)c4)[C@H]4CC[C@@H]3/C4=C\C(F)(F)F)c2)C1` (stereo partly drawn) [Example 329, methyl 3-(3-{[(1R,2R,3S,4R,7Z)-3-{[4-fluoro-3-(trifluoromethyl)phenyl]carbamoyl}-7-(2,2,2-trifluoroethylidene)bicyclo[2.2.1]heptan-2-yl]carbamoyl}-4-methoxyphenyl) cyclobutane-1-carboxylate], it took 210 nM to reach a half-maximal effect (EC50).

As to `CCCc1ccc(OC)c(C(=O)N[C@@H]2C3CCC(/C3=C/C(F)(F)F)[C@@H]2C(=O)Nc2ccc(F)c(C(F)(F)F)c2)c1` (stereo partly drawn) [Example 85, (2S,3R,7Z)-N-[4-fluoro-3-(trifluoromethyl)phe-nyl]-3-(2-methoxy-5-propylbenzamido)-7-(2,2,2-trifluoroethylidene)bi-cyclo[2.2.1]heptane-2-carboxamide], a half-maximal effect (EC50) was put at 3000 nM.

Turning to `COc1ccc(CCCO)cc1C(=O)N[C@@H]1C2CCC(/C2=C/C2CCC2)[C@@H]1C(=O)Nc1ccc(F)c(C(F)(F)F)c1` (stereo partly drawn) [Example 86, (2S,3R,7Z)-7-(cyclobutylmethyli-dene)-N-[4-fluoro-3-(trifluoromethyl)phe-nyl]-3-[5-(3-hydroxypropyl)-2-methoxybenzamido] bicyclo[2.2.1]heptane-2-carboxamide], a half-maximal effect (EC50) was put at 45 nM. This EC50 lies about 67-fold lower than the previous one.

Regarding `CCOC(=O)/C(C)=C/c1ccc(OC)c(C(=O)N[C@H]2[C@@H](C(=O)Nc3ccc(F)c(C(F)(F)F)c3)[C@H]3CC[C@@H]2/C3=C\C(F)(F)F)c1` [Example 318, ethyl (2E)-3-(3-{[(1R,2R,3S,4R,7Z)-3-{[4-fluoro-3-(trifluoromethyl)phenyl]carbamoyl}-7-(2,2,2-trifluoroethylidene)bicyclo[2.2.1]heptan-2-yl]carbamoyl}-4-methoxyphenyl)-2-methylprop-2-enoate], a half-maximal response (EC50) required 2230 nM.

Consider `COc1ccc(C2CCC(C(F)(F)F)CC2)cc1C(=O)NC1C2CCC(/C2=C/C(F)(F)F)[C@@H]1C(=O)Nc1ccc(F)c(C(F)(F)F)c1` (stereo partly shown) [Example 177, (7Z)-N-[4-fluoro-3-(trifluoromethyl)phe-nyl]-3-{2-methoxy-5-[4-(trifluoromethyl)cyclo-hexyl]benzamido}-7-(2,2,2-trifluoroethylidene)bi-cyclo[2.2.1]heptane-2-carboxamide], for which a half-maximal effect (EC50) was put at 298 nM.

For the compound `COc1ccc(/C=C/C(=O)N(C)CCO)cc1C(=O)N[C@H]1[C@@H](C(=O)Nc2ccc(F)c(C(F)(F)F)c2)[C@H]2CC[C@@H]1/C2=C\C1CC1` [Example 302, (1R,2S,3R,4R,7Z)-7-(cyclopropyl-methylidene)-N-[4-fluoro-3-(trifluoromethyl)phenyl]-3-{5-[(1E)-2-[(2-hydroxyethyl) (methyl)carbamoyl]eth-1-en-1-yl]-2-methoxybenzamido} bicyclo[2.2.1]heptane-2-carboxamide], the midpoint of the response, the EC50, lay at 16.3 nM.

`COc1ccc(S(=O)(=O)N2CCO[C@@H](CO)C2)cc1C(=O)NC1C2CCC(/C2=C/C(F)(F)F)[C@@H]1C(=O)Nc1ccc(F)c(C(F)(F)F)c1` (stereo partly drawn) [Example 200, (2S,3R,7Z)-N-[4-fluoro-3-(trifluoromethyl)phe-nyl]-3-(5-{[(2R)-2-(hydroxymethyl)mor-pholin-4-yl]sulfonyl}-2-methoxybenzamido)-7-(2,2,2-trifluoroethylidene)bi-cyclo[2.2.1]heptane-2-carboxamide] registered an EC50 of 203 nM.

With `COc1ccc(C(=O)N2CCC(S(C)(=O)=O)C2)cc1C(=O)N[C@H]1[C@@H](C(=O)Nc2ccc(F)c(C(F)(F)F)c2)[C@H]2CC[C@@H]1/C2=C\C1CC1` (stereo partly drawn) [Example 257, (1R,2S,3R,4R,7Z)-7-(cyclopropylmethyl-idene)-N-[4-fluoro-3-(trifluoromethyl)phenyl]-3-[5-(3-methanesulfonyl-pyrrolidine-1-carbonyl)-2-methoxybenzamido] bicyclo[2.2.1]heptane-2-carboxamide], the midpoint of the response, the EC50, lay at 90.8 nM.

Turning to `COc1ccc(C(=O)N2CC3(C2)CS(=O)(=O)C3)cc1C(=O)N[C@H]1[C@@H](C(=O)Nc2ccc(F)c(C(F)(F)F)c2)[C@H]2CC[C@@H]1/C2=C\C1CC1` [Example 243, (1R,2S,3R,4R,7Z)-7-(cyclopropyl-methylidene)-3-(5-{2,2-dioxo-2λ^6-thia-6-azaspiro[3.3]heptane-6-carbonyl}-2-methoxybenzamido)-N-[4-fluoro-3-(trifluoromethyl)phenyl]bicyclo[2.2.1] heptane-2-carboxamide], the EC50 was 11.9 nM.

`COc1ccc(CCCO)cc1C(=O)NC1C2CCC(/C2=C/C2CCOCC2)[C@@H]1C(=O)Nc1ccc(F)c(C(F)(F)F)c1` (stereo partly shown) [Example 165, (7Z)-N-[4-fluoro-3-(trifluoromethyl)phe-nyl]-3-[5-(3-hydroxypropyl)-2-methoxybenzamido]-7-[(oxan-4-yl)methylidene]bicy-clo[2.2.1]heptane-2-carboxamide]: the 50% effective concentration (EC50) came to 218 nM. This EC50 lies about 18-fold higher than the previous one.

Consider `COc1ccc(CC[C@@H](C)O)cc1C(=O)N[C@@H]1C2CCC(/C2=C/C(F)(F)F)[C@@H]1C(=O)Nc1ccc(F)c(C(F)(F)F)c1` (stereo partly drawn) [Example 93, (2S,3R,7Z)-N-[4-fluoro-3-(trifluoromethyl)phe-nyl]-3-{5-[(3R)-3-hydroxybutyl]-2-methoxybenzamido}-7-(2,2,2-trifluoroethylidene)bi-cyclo[2.2.1]heptane-2-carboxamide], for which the 50% effective concentration (EC50) is 248 nM. The EC50 values of the last two compounds are within 1.5-fold of each other.

Broadly, the EC50 is the concentration at which the effect is half-maximal.
